Source: patent US7595395B2, “Gabaergic agents to treat memory deficits” (priority 2005, dated 2009)
Read-outs that look alike come from different tables or passages of the source.

What was measured:
[1] = molecular target: α6β3γ2 benzodiazepine receptor GABA(A) isoform (UniProt P18507+Q16445); test: Radioligand competition binding, α6β3γ2 BzR/GABA(A) isoform; parameters: species or system human and rat
Description: (§1) The affinity of all ligands at the 6 major recombinant GABAA/BzR subtypes was measured by competition for [^3H]Ro15-1788 binding to HEK-T cells expressing both human and rat GABAA/Bz receptors of composition α1β2γ2 (α1), α2β2γ2 (α2), α3β2γ2 (α3), α4β2γ2 (α4), α5β2γ2 (α5) and α6β2γ2 (α6). It is well known that the β2 and β3 subunits can be interchanged with no effect on Bz ligand affinity or efficacy. […] These studies are similar to those performed in the laboratory of Bryan Roth who has already expressed the receptors employing the work of Kucken et. al. and Gray et. al.
(§2) In brief, for membrane preparations, the cells were scraped on to the ice and diluted into 5 mL of phosphate buffered saline (pH=7.40) and cells pelleted by centrifugation for 5 min. at 4° C. The pellet was resuspended in 1 mL of 50 mM Tris-acetate buffer (pH 7.4) and centrifuged at 18,000 g for 20 min. […] Each pellet were diluted to 6 mL and then 100 μL of membranes were incubated with approximately 1 nM final concentration of [^3H]Ro 15-1788 in a total volume of 250 μL together with serial dilutions of test compound for 90 min. on ice. The membranes were harvested in polyethyleneimine-pretreated Whatman GF/C filters and after drying and addition of scintillation cocktail, counted in a scintillation counter. The cpm retained on the filters was plotted against log concentration (M) and fitted to one site competition equation to obtain the Ki using Graphpad Prizm (V4.0) using the Cheng-Prusoff approximation.

[2] = molecular target: T1, α5β3γ2 benzodiazepine receptor GABA(A) isoform (UniProt P18507+P31644); test: Radioligand competition binding, α5β3γ2 BzR/GABA(A) isoform; parameters: Ki α5; means of two determinations; Ki α5; α5; other: text; species or system human and rat
T1 sequence (P18507 1-475): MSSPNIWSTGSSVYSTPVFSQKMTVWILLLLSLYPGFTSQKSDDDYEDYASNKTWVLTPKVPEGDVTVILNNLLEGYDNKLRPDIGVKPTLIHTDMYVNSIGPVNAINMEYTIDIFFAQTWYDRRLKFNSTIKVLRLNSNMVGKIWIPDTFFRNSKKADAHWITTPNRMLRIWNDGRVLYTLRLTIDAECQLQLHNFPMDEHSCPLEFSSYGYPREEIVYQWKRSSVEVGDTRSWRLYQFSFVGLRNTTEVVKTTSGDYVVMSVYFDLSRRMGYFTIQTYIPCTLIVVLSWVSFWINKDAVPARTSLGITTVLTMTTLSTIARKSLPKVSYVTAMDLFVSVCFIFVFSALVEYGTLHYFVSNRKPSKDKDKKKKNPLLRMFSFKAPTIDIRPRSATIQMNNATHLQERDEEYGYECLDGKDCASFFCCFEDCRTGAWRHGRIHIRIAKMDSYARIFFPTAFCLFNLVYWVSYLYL
T1 sequence (P31644 1-462): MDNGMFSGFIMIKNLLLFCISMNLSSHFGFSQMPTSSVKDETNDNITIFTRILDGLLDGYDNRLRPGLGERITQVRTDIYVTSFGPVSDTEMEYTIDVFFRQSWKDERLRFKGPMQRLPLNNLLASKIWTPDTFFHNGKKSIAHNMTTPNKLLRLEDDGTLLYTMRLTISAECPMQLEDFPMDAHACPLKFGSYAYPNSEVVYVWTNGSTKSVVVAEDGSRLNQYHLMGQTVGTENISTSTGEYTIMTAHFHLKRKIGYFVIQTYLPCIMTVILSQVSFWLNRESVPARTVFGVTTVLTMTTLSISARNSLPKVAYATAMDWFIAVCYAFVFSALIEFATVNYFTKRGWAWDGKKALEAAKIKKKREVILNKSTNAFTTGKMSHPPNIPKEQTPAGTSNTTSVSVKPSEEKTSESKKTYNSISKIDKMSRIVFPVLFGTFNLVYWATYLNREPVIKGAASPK

[3] = molecular target: T2, α1β3γ2 benzodiazepine receptor GABA(A) isoform (UniProt P14867+P18507); test: Radioligand competition binding, α1β3γ2 BzR/GABA(A) isoform; parameters: Ki α1; means of two determinations; Ki α1; α1; species or system human and rat
T2 sequence (P14867 1-456): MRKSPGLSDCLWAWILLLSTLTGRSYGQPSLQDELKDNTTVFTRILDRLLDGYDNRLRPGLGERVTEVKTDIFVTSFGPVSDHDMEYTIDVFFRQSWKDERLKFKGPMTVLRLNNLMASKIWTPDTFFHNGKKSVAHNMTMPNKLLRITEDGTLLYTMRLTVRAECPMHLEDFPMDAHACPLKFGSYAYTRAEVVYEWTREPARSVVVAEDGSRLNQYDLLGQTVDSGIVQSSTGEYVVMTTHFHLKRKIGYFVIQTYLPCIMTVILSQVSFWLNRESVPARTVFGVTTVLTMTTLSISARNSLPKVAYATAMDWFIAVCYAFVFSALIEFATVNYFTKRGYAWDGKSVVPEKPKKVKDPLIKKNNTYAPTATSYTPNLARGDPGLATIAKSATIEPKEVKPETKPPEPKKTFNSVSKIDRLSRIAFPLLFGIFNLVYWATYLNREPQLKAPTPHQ
T2 sequence (P18507 1-475): T1 sequence (P18507 1-475)
Description: as §1, §2

[4] = molecular target: T3, α2β3γ2 benzodiazepine receptor GABA(A) isoform (UniProt P18507+P47869); test: Radioligand competition binding, α2β3γ2 BzR/GABA(A) isoform; parameters: species or system human and rat
T3 sequence (P18507 1-475): T1 sequence (P18507 1-475)
T3 sequence (P47869 1-451): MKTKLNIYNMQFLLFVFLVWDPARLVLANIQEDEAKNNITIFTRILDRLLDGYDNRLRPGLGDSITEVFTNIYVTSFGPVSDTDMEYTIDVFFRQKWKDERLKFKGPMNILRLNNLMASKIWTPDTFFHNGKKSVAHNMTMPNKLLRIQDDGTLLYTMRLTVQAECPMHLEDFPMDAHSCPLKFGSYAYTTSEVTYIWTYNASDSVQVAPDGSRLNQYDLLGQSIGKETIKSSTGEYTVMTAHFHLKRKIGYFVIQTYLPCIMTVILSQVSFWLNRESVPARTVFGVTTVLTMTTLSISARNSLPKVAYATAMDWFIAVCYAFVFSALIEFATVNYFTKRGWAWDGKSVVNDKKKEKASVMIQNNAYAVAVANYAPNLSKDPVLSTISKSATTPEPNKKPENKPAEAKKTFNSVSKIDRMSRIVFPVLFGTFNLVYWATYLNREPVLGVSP
Description: as §1, §2

α5β3γ2 GABAA receptor = α5β3γ2 GABAA receptor (Rattus norvegicus, UniProt P18508+P19969); test: Two-electrode voltage clamp in Xenopus oocytes, α5β3γ2; details: oocytes
Sequence of α5β3γ2 GABAA receptor (P19969 26-464): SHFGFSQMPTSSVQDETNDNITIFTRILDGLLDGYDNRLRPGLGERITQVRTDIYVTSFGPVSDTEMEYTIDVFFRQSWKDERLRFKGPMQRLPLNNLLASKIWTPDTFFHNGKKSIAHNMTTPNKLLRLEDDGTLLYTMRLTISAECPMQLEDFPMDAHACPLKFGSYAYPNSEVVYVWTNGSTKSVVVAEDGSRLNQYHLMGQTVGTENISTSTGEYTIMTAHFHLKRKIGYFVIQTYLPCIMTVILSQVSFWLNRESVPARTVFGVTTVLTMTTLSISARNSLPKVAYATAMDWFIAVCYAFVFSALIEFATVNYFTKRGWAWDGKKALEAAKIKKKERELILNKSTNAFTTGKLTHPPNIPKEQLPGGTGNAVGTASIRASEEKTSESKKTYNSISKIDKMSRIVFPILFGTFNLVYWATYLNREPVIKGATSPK
Sequence of α5β3γ2 GABAA receptor (P63079 26-473 partner): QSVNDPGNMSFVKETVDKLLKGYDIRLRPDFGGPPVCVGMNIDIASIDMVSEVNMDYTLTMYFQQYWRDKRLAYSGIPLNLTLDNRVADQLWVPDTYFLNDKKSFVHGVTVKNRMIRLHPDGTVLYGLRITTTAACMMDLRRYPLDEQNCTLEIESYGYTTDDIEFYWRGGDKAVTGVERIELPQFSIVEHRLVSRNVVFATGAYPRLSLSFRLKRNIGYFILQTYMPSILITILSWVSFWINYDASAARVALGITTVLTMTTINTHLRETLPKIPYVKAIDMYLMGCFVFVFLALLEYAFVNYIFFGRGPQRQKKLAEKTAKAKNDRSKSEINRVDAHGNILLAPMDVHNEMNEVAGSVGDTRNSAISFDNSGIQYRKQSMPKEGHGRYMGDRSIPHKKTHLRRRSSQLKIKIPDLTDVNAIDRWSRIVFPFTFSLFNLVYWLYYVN
Sequence of α5β3γ2 GABAA receptor (P18508 39-466): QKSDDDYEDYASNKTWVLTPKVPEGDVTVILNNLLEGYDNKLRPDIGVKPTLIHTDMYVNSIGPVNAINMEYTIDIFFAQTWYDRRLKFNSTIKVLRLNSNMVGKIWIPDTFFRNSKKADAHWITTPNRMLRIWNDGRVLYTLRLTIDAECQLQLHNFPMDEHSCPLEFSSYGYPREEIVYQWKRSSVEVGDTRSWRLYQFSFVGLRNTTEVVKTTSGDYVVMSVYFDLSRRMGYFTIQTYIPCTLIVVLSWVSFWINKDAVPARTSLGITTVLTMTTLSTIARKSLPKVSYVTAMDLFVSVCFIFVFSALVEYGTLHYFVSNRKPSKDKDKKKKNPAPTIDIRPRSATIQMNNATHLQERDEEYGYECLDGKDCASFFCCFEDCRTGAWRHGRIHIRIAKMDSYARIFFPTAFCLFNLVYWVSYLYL

[5] = read-out: α5, untitled table of lead compounds, unit inferred
[6] = read-out: α1, untitled table of lead compounds, unit inferred
[7] = read-out: α2, untitled table of lead compounds, unit inferred
[8] = read-out: Ki α6, Table I, means of two determinations
[9] = read-out: α6, untitled table of lead compounds, unit inferred
[10] = read-out: Ki α5, Table I, means of two determinations
[11] = read-out: Ki α1, Table I, means of two determinations
[12] = read-out: Ki α2, Table I, means of two determinations

| Compound | Ki ([1]; read-out: Ki α6, Table 2, means of two determinations) [nM] | Ki ([2]; read-out: Ki α5, Table 2, means of two determinations) [nM] | Ki [2, 5] [nM] | Ki ([3]; read-out: Ki α1, Table 2, means of two determinations) [nM] | Ki [3, 6] [nM] | Ki ([4]; read-out: Ki α2, Table 2, means of two determinations) [nM] | Ki [4, 7] [nM] | efficacy / modulation of GABA elicited currents at α5 (in words) (α5β3γ2 GABAA receptor; listed as XLi-356) | efficacy / modulation of GABA elicited currents at α5 (in words) (α5β3γ2 GABAA receptor; listed as Xli356) | Ki [1, 8] [nM] | Ki [1, 9] [nM] | Ki [2, 10] [nM] | Ki [3, 11] [nM] | Ki [4, 12] [nM] | efficacy / modulation of GABA elicited currents at α5 (in words) (α5β3γ2 GABAA receptor) | Ki ([2]; read-out: binding potency at α5 subtypes) [nM] |
| --- | --- | --- | --- | --- | --- | --- | --- | --- | --- | --- | --- | --- | --- | --- | --- | --- |
| CCc1ccc2c(c1)C(=O)N(C)Cc1c(C(=O)OCCCOC(=O)c3ncn4c3CN(C)C(=O)c3cc(CC)ccc3-4)ncn1-2 [XLi356, 1,3-Bis(8-ethyl-5,6-dihydro-5-methyl-6-oxo-4H-imidazo[1,5a][1,4]benzodiazepine-3-carboxy)propyl diester] | 5000 | 107 | 107 | 2380 | 2380 | 5980 | 5980 | clear agonist | appears to be an agonist | – | – | – | – | – | – | – |
| COCc1ncn2c1CN(C)C(=O)c1cc(Cl)ccc1-2 [PWZ-029, methyl(8-chloro-5,6-dihydro-5-methyl-6-oxo-4H-imidazo[1,5-α][1,4]benzodiazepin-3-yl)methyl ether] | – | – | 38.8 | – | > 300 | – | > 300 | – | – | > 300 | > 300 | 38.8 | > 300 | > 300 | selective inverse agonist | – |
| CCOC(=O)c1ncn2c1CN=C(c1ccccc1)c1cc(-c3ccccc3)ccc1-2 [DM-I-81, Ethyl 8-phenyl-6-phenyl-4H-benzo[f]imidazo[1,5-a][1,4]diazepine-3-carboxylate] | – | – | 176 | – | > 2000 | – | > 2000 | – | – | > 2000 | > 2000 | 176 | > 2000 | > 2000 | moderate agonist activity | 174 |
